Measured values from the CheMixHub viscosity set.
Values joined by “and” are separate entries in the source; they are usually repeats but may differ in a detail not shown here. Equal values may be shown once.

CCCCCCCCCCCC(=O)OC
100 kPa
Settings | viscosity
293.15 K | 3.12 mPa·s and 3.128 mPa·s
298.15 K | 2.778 mPa·s
303.15 K | 2.491 mPa·s
308.15 K | 2.25 mPa·s
318.15 K | 1.877 mPa·s
323.15 K | 1.712 mPa·s and 1.717 mPa·s

CCCCCC[N+](CC)(CC)CC.O=S(=O)([N-]S(=O)(=O)C(F)(F)F)C(F)(F)F
100 kPa
Settings | viscosity [mPa·s]
293.15 K | 241.4
313.15 K | 80.71

CCCCCC[n+]1ccn(C)c1.O=S(=O)([O-])C(F)(F)F
100 kPa
Settings | viscosity [mPa·s]
293.15 K | 194.9
298.15 K | 150.8
303.15 K | 115.7
308.15 K | 91.13
313.15 K | 74.03

CCOC(C)=O
Settings | viscosity
296 K, 101.3 kPa | 0.437 mPa·s
298 K, 101.3 kPa | 0.439 mPa·s and 0.439 mPa·s
298.15 K, 100 kPa | 0.42 mPa·s and 0.42 mPa·s
298.15 K, 101.3 kPa | 0.4407 mPa·s (2×) and 0.439 mPa·s
298.15 K, 101.33 kPa | 0.457 mPa·s and 0.424 mPa·s and 0.424 mPa·s
303.15 K, 101.3 kPa | 0.4178 mPa·s and 0.4178 mPa·s
308.15 K, 101.3 kPa | 0.3972 mPa·s and 0.3972 mPa·s
313.15 K, 101.3 kPa | 0.376 mPa·s and 0.376 mPa·s
313.15 K, 101.32 kPa | 0.369 mPa·s
313.15 K, 101.33 kPa | 0.368 mPa·s
318 K, 101.3 kPa | 0.3829 mPa·s
318 K, 101.33 kPa | 0.3829 mPa·s
318.15 K, 101.3 kPa | 0.358 mPa·s
318.15 K, 101.33 kPa | 0.35 mPa·s
323.15 K, 100 kPa | 0.3053 mPa·s
323.15 K, 101 kPa | 0.341 mPa·s and 0.327 mPa·s and 0.3356 mPa·s
323.15 K, 101.3 kPa | 0.3407 mPa·s and 0.3407 mPa·s

CCOc1ccccc1
viscosity
Settings | 101 kPa | 101.3 kPa | 101.33 kPa
293.15 K | 1.222 mPa·s and 1.27 mPa·s | 1.366 mPa·s | 1.231 mPa·s
293.35 K | 1.24 mPa·s | – | –
298 K | – | – | 1.164 mPa·s
302.75 K | 1.03 mPa·s | – | –
303 K | – | – | 1.068 mPa·s
303.15 K | 1.038 mPa·s and 1.05 mPa·s | – | 1.036 mPa·s
308 K | – | – | 0.983 mPa·s
308.15 K | 0.978 mPa·s | 0.9842 mPa·s | –
313.15 K | 0.901 mPa·s and 0.875 mPa·s | – | 0.894 mPa·s
318.15 K | 0.839 mPa·s | 0.8284 mPa·s | –
323.15 K | 0.782 mPa·s | – | –

COCCOCC[n+]1ccn(CCC#N)c1.O=S(=O)([N-]S(=O)(=O)C(F)(F)F)C(F)(F)F
101.33 kPa
Settings | viscosity [mPa·s]
293.15 K | 296.5
303.15 K | 169
313.15 K | 103.2
323.15 K | 74.62

OCC(O)CO
Settings | viscosity
293.15 K, 100 kPa | 1360 mPa·s
294 K, 101 kPa | 1390 mPa·s
298 K, 101 kPa | 946.5 mPa·s
298.15 K, 100 kPa | 860 mPa·s
298.15 K, 101.33 kPa | 803.7 mPa·s
303 K, 101 kPa | 611.3 mPa·s and 409.6 mPa·s
303.15 K, 100 kPa | 542 mPa·s
308 K, 101 kPa | 413.9 mPa·s
308.15 K, 101 kPa | 405.8 mPa·s
308.15 K, 101.33 kPa | 351.5 mPa·s
313 K, 101 kPa | 285.5 mPa·s
313.15 K, 100 kPa | 217 mPa·s
313.15 K, 101 kPa | 231 mPa·s and 284 mPa·s and 289.4 mPa·s
318 K, 101 kPa | 213.7 mPa·s
318.15 K, 101 kPa | 182.5 mPa·s and 176.2 mPa·s
318.15 K, 101.33 kPa | 157.1 mPa·s
323 K, 101 kPa | 141 mPa·s
323.15 K, 101 kPa | 142 mPa·s and 153.8 mPa·s

[O-][Cl+3]([O-])([O-])O[Cl+3]([O-])([O-])[O-]
Settings | viscosity [mPa·s]
293.15 K, 101.33 kPa | 0.698
